Assay results published in ChEMBL document CHEMBL4706576, “Tricyclic heterocycles display diverse sensitivity to the A147T TSPO polymorphism” (Eur J Med Chem, 2020).

How the values were obtained:
Homo sapiens = species: Homo sapiens; test: Selectivity index, ratio of Ki for TSPO A147T mutant (unknown origin) to Ki for wild type TSPO (unknown origin)
Translocator protein = Translocator protein (Homo sapiens, UniProt P30536); test: Displacement of [3H]-PK11195 from wild type TSPO (unknown origin) expressed in human HEK293T cells assessed as inhibitory constant incubated for 90 mins by microbeta scintillation counting method; assay type: cell-based
Sequence of Translocator protein (P30536 whole entry): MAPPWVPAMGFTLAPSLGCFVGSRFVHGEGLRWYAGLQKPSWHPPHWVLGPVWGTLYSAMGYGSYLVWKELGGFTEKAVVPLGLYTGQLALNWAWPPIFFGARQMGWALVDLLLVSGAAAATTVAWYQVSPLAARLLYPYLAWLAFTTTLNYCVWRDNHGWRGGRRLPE

Structure (SMILES)	Ratio Ki (Homo sapiens)	Ki (Translocator protein) [nM]
COc1ccc(-c2nn3c(C)cc(C)nc3c2CC(=O)N(C)Cc2ccccc2)cc1	2.9	9.3
CN(C)C(=O)CN1c2ccccc2NC(=O)c2ccccc21	–	> 10000
CN(C)C(=O)CN1Cc2cnn(C)c2Nc2ccccc21	–	> 10000
CN(Cc1ccccc1)C(=O)Cn1c2ccccc2c2ccccc21	2.5	–
CCN(CC)C(=O)Cn1c2ccccc2c2ccccc21	5.9	–
CCN(CC)C(=O)CN1Cc2cnn(C)c2Nc2ccccc21	4.6	493
CN(Cc1ccccc1)C(=O)CN1c2ccccc2NC(=O)c2ccccc21	2.1	76.8
CCN(Cc1ccccc1)C(=O)Cn1c2ccccc2c2ccccc21	5	–
CCN(Cc1ccccc1)C(=O)CN1Cc2cnn(C)c2Nc2ccccc21	5.5	41.3
CN(Cc1ccccc1)C(=O)CN1Cc2cnn(C)c2Nc2ccccc21	4.8	41.3
COc1ccc(-c2nn3c(C)cc(C)nc3c2CC(=O)N(C)C)cc1	1.7	338
CCN(Cc1ccccc1)C(=O)CN1c2ccccc2NC(=O)c2ccccc21	6.2	15.8
CCN(CC)C(=O)CN1c2ccccc2NC(=O)c2ccccc21	11.8	200
CCN(Cc1ccccc1)C(=O)Cc1c(-c2ccc(OC)cc2)nn2c(C)cc(C)nc12	13	6.2
